Results taken from patent US12061201B2, “Fluorescent probes for the visualization of FtsZ in gram-positive and gram-negative bacterial pathogens” (Rutgers, The State University of New Jersey, priority 2019, dated 2024).
Like-named read-outs stand apart in the source and are kept apart here.

Experiments:
Experiment in all cases: Fluorescence anisotropy binding of BOFP to FtsZ
Conditions in all cases: for Kd: 50 mM Tris-HCl (pH 7.6), 50 mM KCl
[1] = biological target: Enterococcus faecalis FtsZ (EfsFtsZ) (Enterococcus faecalis, UniProt O08439)
Chain of Enterococcus faecalis FtsZ (EfsFtsZ) (O08439 whole entry): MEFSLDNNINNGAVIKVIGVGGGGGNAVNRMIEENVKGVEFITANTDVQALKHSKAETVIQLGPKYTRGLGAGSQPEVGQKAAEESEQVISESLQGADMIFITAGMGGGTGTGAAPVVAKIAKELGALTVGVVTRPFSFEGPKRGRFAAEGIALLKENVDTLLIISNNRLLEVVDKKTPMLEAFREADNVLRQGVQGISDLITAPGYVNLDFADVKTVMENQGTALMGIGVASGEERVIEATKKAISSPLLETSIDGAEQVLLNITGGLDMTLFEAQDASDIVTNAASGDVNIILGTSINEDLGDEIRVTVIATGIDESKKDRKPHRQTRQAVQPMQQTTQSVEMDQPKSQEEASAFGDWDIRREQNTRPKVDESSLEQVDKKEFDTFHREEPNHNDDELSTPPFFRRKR
Method: (§1) Fluorescence anisotropy assay for determining the affinities and thermodynamics associated with the binding of BOFP to FtsZ proteins. Fluorescence anisotropy experiments were performed using an AVIV model ATF105 spectrofluorometer at 15, 25, or 37° C. In these experiments, bandwidths were set to 4 nm in both the excitation and emission directions, with the excitation and emission wavelengths being set at 488 nm and 510 nm, respectively. BOFP (0.1 μM) was titrated with increasing concentrations (ranging from 0 to 12 μM) of FtsZ in 120 μL of buffer containing 50 mM Tris-HCl (pH 7.6) and 50 mM KCl. After each protein addition, the samples were equilibrated for 3 minutes, whereupon the fluorescence anisotropy was measured.
(§2) [formula] In this equation, r0 is the anisotropy of the protein-free compound, r∞ is the anisotropy of the compound in the presence of an infinite concentration of FtsZ, [C]tot is the total concentration of the compound, and [P]tot is the total concentration of protein with each addition. These analyses yielded the equilibrium dissociation constant (Kd) for each binding reaction.
(§3) The binding free energy (ΔG) at temperature T was derived from the corresponding Kd value determined at T using the following relationship:
(§4) [formula] The binding enthalpy (ΔH) and entropy (ΔS) were derived from linear fits of the ln(1/Kd) vs. 1/T plots shown in FIGS. 3f and 5e using the following relationship:
(§5) A quartz ultra-micro cell (Hellma) with a 2×5 mm aperture and a 15 mm center height was used for all measurements. The pathlengths in the excitation and emissions directions were 1 and 0.2 cm, respectively. All steady-state anisotropy experiments were conducted in at least triplicate, with the reported anisotropies reflecting the average values.

[2] = biological target: T1, Streptococcus agalactiae FtsZ (SagFtsZ) (Streptococcus agalactiae, UniProt Q8E183)
T1 sequence (Q8E183 1-426): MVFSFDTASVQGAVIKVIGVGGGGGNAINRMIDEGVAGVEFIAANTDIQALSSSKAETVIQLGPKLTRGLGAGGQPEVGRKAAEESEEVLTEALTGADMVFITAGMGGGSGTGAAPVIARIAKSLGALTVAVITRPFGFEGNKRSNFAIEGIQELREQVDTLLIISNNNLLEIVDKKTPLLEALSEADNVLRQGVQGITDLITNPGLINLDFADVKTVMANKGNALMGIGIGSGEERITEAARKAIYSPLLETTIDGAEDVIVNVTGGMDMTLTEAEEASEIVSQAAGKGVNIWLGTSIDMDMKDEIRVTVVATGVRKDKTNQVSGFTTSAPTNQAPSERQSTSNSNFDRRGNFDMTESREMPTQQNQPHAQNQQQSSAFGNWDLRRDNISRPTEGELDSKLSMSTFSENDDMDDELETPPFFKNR
Method: as §1, §2, §3, §4, §5

[3] = biological target: T2, Acinetobacter baumannii FtsZ (AbFtsZ) (Acinetobacter baumannii, UniProt V5V8B6)
T2 sequence (V5V8B6 1-391): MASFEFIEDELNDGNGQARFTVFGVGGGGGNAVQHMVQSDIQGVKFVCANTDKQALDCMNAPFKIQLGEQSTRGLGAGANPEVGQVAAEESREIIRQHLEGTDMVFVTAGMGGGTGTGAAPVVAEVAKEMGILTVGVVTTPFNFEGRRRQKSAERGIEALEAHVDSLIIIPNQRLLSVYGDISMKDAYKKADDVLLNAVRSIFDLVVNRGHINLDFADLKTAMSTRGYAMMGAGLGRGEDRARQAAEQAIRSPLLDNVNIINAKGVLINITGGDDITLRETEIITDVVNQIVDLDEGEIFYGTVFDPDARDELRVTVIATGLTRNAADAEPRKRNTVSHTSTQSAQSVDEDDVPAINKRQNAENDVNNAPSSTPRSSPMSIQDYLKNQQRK
Method: as §1, §2, §3, §4, §5

[4] = biological target: T3, Streptococcus pneumoniae FtsZ (SpnFtsZ) (Streptococcus pneumoniae, UniProt A0A0H2ZNE0)
T3 sequence (A0A0H2ZNE0 1-419): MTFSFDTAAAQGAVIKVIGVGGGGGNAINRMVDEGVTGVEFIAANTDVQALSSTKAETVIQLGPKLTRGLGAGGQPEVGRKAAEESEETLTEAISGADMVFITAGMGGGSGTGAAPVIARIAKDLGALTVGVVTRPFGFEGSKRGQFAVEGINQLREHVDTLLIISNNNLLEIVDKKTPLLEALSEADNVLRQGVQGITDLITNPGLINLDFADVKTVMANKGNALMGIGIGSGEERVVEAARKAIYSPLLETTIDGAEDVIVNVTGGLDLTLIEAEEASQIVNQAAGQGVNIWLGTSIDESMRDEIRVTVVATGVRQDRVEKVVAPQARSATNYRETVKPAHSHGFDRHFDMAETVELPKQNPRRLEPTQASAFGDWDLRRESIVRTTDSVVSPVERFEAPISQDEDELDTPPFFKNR
Method: as §1, §2, §3, §4, §5

[5] = linear fit of ln(1/Kd) vs. 1/T, Eq. 3

`CC1=CC(C)=[N+]2C1=Cc1ccc(CCC(=O)OCC(Oc3ccc(F)c(C(N)=O)c3F)c3nc(-c4ccc(C(F)(F)F)cc4)c(Br)o3)n1[B-]2(F)F` (centres unmarked) [BOFP, 2-(5-bromo-4-(4-(trifluoromethyl)phenyl)-oxazol-2-yl)-2-(3-carbamoyl-2,4-difluorophenoxy)ethyl 3-(5,5-difluoro-7,9-dimethyl-5H-5λ^4,6λ^4-dipyrrolo[1,2-c:2′,1′-f][1,3,2]diazaborinin-3-yl)propanoate] was tested, and the “enthalpic contribution (ΔH) to the observed ΔG of binding” value [1] was 100%, the Kd ([1]; 15° C., read-out: Kd −15° C.) was 1720 ± 60 nM and the Kd ([1]; 25° C., read-out: Kd −25° C.) was 3050 ± 250 nM. It also gave a Kd ([1]; 37° C., read-out: Kd −37° C.) of 4620 ± 120 nM, a ΔG ([1]; T = 310K (37° C.), Eq. 2) of -7.6 ± 0.1 kcal/mol and a ΔH [1, 5] of -7.9 ± 1.0 kcal/mol. The ΔS [1, 5] was −1.2 ± 3.3 cal/mol · K, the “ΔH contribution to the observed ΔG of binding” value [2] was > 50% and the Kd ([2]; 15° C., read-out: Kd −15° C.) was 620 ± 50 nM. It also gave a Kd ([2]; 25° C., read-out: Kd −25° C.) of 1020 ± 90 nM, a Kd ([2]; 37° C., read-out: Kd −37° C.) of 1310 ± 40 nM and a ΔH [2, 5] of -6.6 ± 0.6 kcal/mol. The ΔS [2, 5] was “+5.4 ± 2.0 cal/mol · K”, the “ΔS contribution to the observed ΔG of binding” value [3] was > 50% and the Kd ([3]; 15° C., read-out: Kd −15° C.) was 400 ± 30 nM. It also gave a Kd ([3]; 25° C., read-out: Kd −25° C.) of 550 ± 20 nM, a Kd ([3]; 37° C., read-out: Kd −37° C.) of 680 ± 40 nM and a ΔH [3, 5] of -4.2 ± 0.6 kcal/mol. For the same compound, the ΔS [3, 5] was “+14.5 ± 2.1 cal/mol · K”, the “ΔS contribution to the observed ΔG of binding” value [4] was > 50% and the Kd ([4]; 15° C., read-out: Kd −15° C.) was 3020 ± 300 nM. It also gave a Kd ([4]; 25° C., read-out: Kd −25° C.) of 3490 ± 250 nM, a Kd ([4]; 37° C., read-out: Kd −37° C.) of 3810 ± 690 nM and a ΔG ([4]; T = 310K (37° C.), Eq. 2) of -7.7 ± 0.1 kcal/mol. The ΔH [4, 5] was -1.9 ± 0.3 kcal/mol and the ΔS [4, 5] was “+18.7 ± 1.2 cal/mol · K”.
